This note sets out measurements from PMC12406204 (Journal of Medicinal Chemistry, 2025).

This series relates to mouse primary neurons. As to the kind of experiment: Neuroprotection in primary cultures exposed to LPS + IFN-γ. The series is classed as cell-based. The protocol: To unequivocally confirm that the observed neuroprotective effect was indeed mediated by CB2R activation, an additional experiment was conducted (Figure C).
To prepare primary neurons, brains from fetuses of pregnant CD1 mice were removed (gestational age: 19 days). Neurons were isolated as described in Hradsky et al. Briefly, after removal of the meninges, samples were dissected and digested with 0.25% trypsin (20 min at 37 °C). The effect of trypsin was stopped by adding an equal volume of culture medium (supplemented DMEM). A single-cell suspension was obtained by repeated pipetting followed by passage through a 100 μm-pore mesh. Pelleted (7 min, 200g) cells were resuspended in 2 mL of supplemented DMEM and seeded at a density of 3.5 × 10^5 cells/mL in 6-well plates. […]
Primary cultures of striatal neurons were treated for 24 h with selected SCRAs (100 nM). […] After ∼3 min of incubation at room temperature, 10 μL of the mixture were sampled in a Neubauer chamber and counted with a Countess II FL (Life Technologies, California, CA, USA). The unstained (viable) and stained (nonviable) cells were counted separately, and the percentage of viability was calculated as total number of viable cells/total number of cells × 100.

Take `NC(=O)[C@@H]1CCCCN1C(=O)c1nn(Cc2ccc(F)cc2)c2ccccc12` [18o]: the “cell viability after LPS + IFN-γ with CB2R antagonist SR144528” value (compound alongside SR144528) is recorded as roughly 60%. In addition, the “cell viability after LPS + IFN-γ” value (primary cultures exposed to LPS + IFN-γ) is reported as roughly 100%.
